Laboratory results: patent US11173151B2, “Substituted triazole derivatives and uses thereof” (BAYER AKTIENGESELLSCHAFT, priority 2017, dated 2021)

Columns and labels:
human V1a receptor = target: T1, human V1a receptor (Homo sapiens, UniProt P37288); test: Cellular in vitro assay for determining vasopressin receptor activity, V1a receptor cell line (CHO, aequorin luminescence); format: cell-based; conditions: for IC50: CHO cell line transfected with human V1a receptor, [Arg]-vasopressin at EC50 concentration, read-out: IC50 hV1a; for ratio IC50 hV2/hV1a: selectivity ratio IC50 hV2 / IC50 hV1a
T1 construct: expressed in transfected cells; host or cells: CHO K1 (ATCC), also stably transfected with a modified aequorin
T1 sequence (P37288 whole entry): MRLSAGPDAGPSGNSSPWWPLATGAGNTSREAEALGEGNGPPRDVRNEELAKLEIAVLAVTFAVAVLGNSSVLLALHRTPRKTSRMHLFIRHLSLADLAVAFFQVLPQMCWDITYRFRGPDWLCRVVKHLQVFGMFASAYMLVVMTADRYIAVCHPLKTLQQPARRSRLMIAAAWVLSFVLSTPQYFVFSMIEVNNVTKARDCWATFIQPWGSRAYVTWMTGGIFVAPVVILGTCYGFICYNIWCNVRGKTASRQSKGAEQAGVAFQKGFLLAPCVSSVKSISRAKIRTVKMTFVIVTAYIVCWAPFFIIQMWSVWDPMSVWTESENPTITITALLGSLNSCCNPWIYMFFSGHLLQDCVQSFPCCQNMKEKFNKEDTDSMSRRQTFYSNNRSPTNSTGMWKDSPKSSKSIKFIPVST
In short: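 CHO K1/aequorin cells, coelenterazine 5 μg/ml o/n; cpd 10 min; [Arg]-vasopressin at EC50; luminescence read immediately; IC50.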

human V2 receptor = target: T2, human V2 receptor (Homo sapiens, UniProt P30518); test: Cellular in vitro assay for determining vasopressin receptor activity, V2 receptor cell line (CHO, CRE-luciferase); format: cell-based; conditions: CHO cell line transfected with human V2 receptor; [Arg8]-vasopressin at EC50 concentration; read-out: IC50 hV2
T2 construct: expressed in transfected cells; host or cells: CHO K1 (ATCC) expressing firefly luciferase under a CRE-responsive promoter
T2 sequence (P30518 whole entry): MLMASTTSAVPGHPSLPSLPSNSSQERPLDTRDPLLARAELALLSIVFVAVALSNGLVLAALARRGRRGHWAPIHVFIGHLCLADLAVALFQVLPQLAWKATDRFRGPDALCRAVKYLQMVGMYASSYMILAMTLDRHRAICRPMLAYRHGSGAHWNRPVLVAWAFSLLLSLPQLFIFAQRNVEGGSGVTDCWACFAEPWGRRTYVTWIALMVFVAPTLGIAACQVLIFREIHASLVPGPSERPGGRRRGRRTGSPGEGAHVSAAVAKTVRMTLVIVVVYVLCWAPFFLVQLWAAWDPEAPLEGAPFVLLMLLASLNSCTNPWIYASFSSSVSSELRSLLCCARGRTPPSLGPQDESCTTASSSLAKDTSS

**Q.** For `O=C(NCC1CC1)c1cccc(C(F)(F)F)c1-n1cnc(Cn2nc(-c3ccc(Cl)cc3)n(C[C@H](O)C(F)(F)F)c2=O)n1` [Example 419, 2-[3-({3-(4-Chlorophenyl)-5-oxo-4-[(2S)-3,3,3-trifluoro-2-hydroxypropyl]-4,5-dihydro-1H-1,2,4-triazol-1-yl}methyl)-1H-1,2,4-triazol-1-yl]-N-(cyclopropylmethyl)-3-(trifluoromethyl)benzamide], which IC50 (human V1a receptor) is on record?
**A.** 96 nM

**Q.** What about the “ratio IC50 hV2/hV1a” value (human V1a receptor) of the same compound?
**A.** 10.7

**Q.** And the IC50 (human V2 receptor)?
**A.** 1020 nM

**Q.** `O=C(NCCC(F)(F)F)c1cccc(C(F)(F)F)c1-n1cnc(Cn2nc(-c3ccc(Cl)cc3)n(C[C@H](O)C(F)(F)F)c2=O)n1` [Example 421, 2-[3-({3-(4-Chlorophenyl)-5-oxo-4-[(2S)-3,3,3-trifluoro-2-hydroxypropyl]-4,5-dihydro-1H-1,2,4-triazol-1-yl}methyl)-1H-1,2,4-triazol-1-yl]-3-(trifluoromethyl)-N-(3,3,3-trifluoropropyl)benzamide] was tested. Which IC50 (human V1a receptor) did it give?
**A.** 22 nM

**Q.** What about the “ratio IC50 hV2/hV1a” value (human V1a receptor) of the same compound?
**A.** 16.8

**Q.** And the IC50 (human V2 receptor)?
**A.** 370 nM

**Q.** With `COC[C@@H]1CCCN1C(=O)c1cccc(C(F)(F)F)c1-n1cnc(Cn2nc(-c3ccc(Cl)cc3)n(C[C@H](O)C(F)(F)F)c2=O)n1` [Example 423, 5-(4-Chlorophenyl)-2-({1-[2-{[(2S)-2-(methoxymethyl)pyrrolidin-1-yl]carbonyl}-6-(trifluoromethyl)phenyl]-1H-1,2,4-triazol-3-yl}methyl)-4-[(2S)-3,3,3-trifluoro-2-hydroxypropyl]-2,4-dihydro-3H-1,2,4-triazol-3-one] as the compound, how does the IC50 (human V1a receptor) read?
**A.** 40 nM

**Q.** And the “ratio IC50 hV2/hV1a” value (human V1a receptor)?
**A.** 472.5

**Q.** And the IC50 (human V2 receptor)?
**A.** 18900 nM

**Q.** What does the source list for `CC(C)(N)CNC(=O)c1cc(F)ccc1-n1cnc(Cn2nc(-c3ccc(Cl)cc3)n(C[C@H](O)C(F)(F)F)c2=O)n1` [Example 424, N-(2-Amino-2-methylpropyl)-2-[3-({3-(4-chlorophenyl)-5-oxo-4-[(2S)-3,3,3-trifluoro-2-hydroxypropyl]-4,5-dihydro-1H-1,2,4-triazol-1-yl}methyl)-1H-1,2,4-triazol-1-yl]-5-fluorobenzamide]?
**A.** IC50 (human V1a receptor): 11.5 nM; ratio IC50 hV2/hV1a (human V1a receptor): 230.4; IC50 (human V2 receptor): 2650 nM

**Q.** For `CNC(=O)c1cc(F)ccc1-n1cnc(Cn2nc(-c3ccc(Cl)cc3)n(C[C@H](O)C(F)(F)F)c2=O)n1` [Example 425, 2-[3-({3-(4-Chlorophenyl)-5-oxo-4-[(2S)-3,3,3-trifluoro-2-hydroxypropyl]-4,5-dihydro-1H-1,2,4-triazol-1-yl}methyl)-1H-1,2,4-triazol-1-yl]-5-fluoro-N-methylbenzamide], which IC50 (human V1a receptor) is on record?
**A.** 9.85 nM

**Q.** What about the “ratio IC50 hV2/hV1a” value (human V1a receptor) of the same compound?
**A.** 10.2

**Q.** What about the IC50 (human V2 receptor) of the same compound?
**A.** 100 nM

**Q.** With `O=C(NCC(F)(F)F)c1cc(F)ccc1-n1cnc(Cn2nc(-c3ccc(Cl)cc3)n(C[C@H](O)C(F)(F)F)c2=O)n1` [Example 426, 2-[3-({3-(4-Chlorophenyl)-5-oxo-4-[(2S)-3,3,3-trifluoro-2-hydroxypropyl]-4,5-dihydro-1H-1,2,4-triazol-1-yl}methyl)-1H-1,2,4-triazol-1-yl]-5-fluoro-N-(2,2,2-trifluoroethyl)benzamide] as the compound, how does the IC50 (human V1a receptor) read?
**A.** 19 nM

**Q.** What about the “ratio IC50 hV2/hV1a” value (human V1a receptor) of the same compound?
**A.** 6.6

**Q.** And the IC50 (human V2 receptor)?
**A.** 125 nM

**Q.** Which IC50 (human V1a receptor) does the source give for `O=C(NCC(F)(F)F)c1cc(Cl)ccc1-n1cnc(Cn2nc(-c3ccc(Cl)cc3)n(C[C@H](O)C(F)(F)F)c2=O)n1` [Example 427, 5-Chloro-2-[3-({3-(4-chlorophenyl)-5-oxo-4-[(2S)-3,3,3-trifluoro-2-hydroxypropyl]-4,5-dihydro-1H-1,2,4-triazol-1-yl}methyl)-1H-1,2,4-triazol-1-yl]-N-(2,2,2-trifluoroethyl)benzamide] here?
**A.** 21 nM

**Q.** What about the “ratio IC50 hV2/hV1a” value (human V1a receptor) of the same compound?
**A.** 3.5

**Q.** What about the IC50 (human V2 receptor) of the same compound?
**A.** 72.7 nM

**Q.** `O=C(NCC(F)(F)F)c1ncccc1-n1cnc(Cn2nc(-c3ccc(Cl)cc3)n(C[C@H](O)C(F)(F)F)c2=O)n1` [Example 428, 3-[3-({3-(4-Chlorophenyl)-5-oxo-4-[(2S)-3,3,3-trifluoro-2-hydroxypropyl]-4,5-dihydro-1H-1,2,4-triazol-1-yl}methyl)-1H-1,2,4-triazol-1-yl]-N-(2,2,2-trifluoroethyl)pyridine-2-carboxamide] was tested. Which IC50 (human V1a receptor) did it give?
**A.** 41 nM

**Q.** What about the “ratio IC50 hV2/hV1a” value (human V1a receptor) of the same compound?
**A.** 31.5

**Q.** And the IC50 (human V2 receptor)?
**A.** 1290 nM

**Q.** Which IC50 (human V1a receptor) does the source give for `O=C(NC1CC1)c1ncccc1-n1cnc(Cn2nc(-c3ccc(Cl)cc3)n(C[C@H](O)C(F)(F)F)c2=O)n1` [Example 431, 3-[3-({3-(4-Chlorophenyl)-5-oxo-4-[(2S)-3,3,3-trifluoro-2-hydroxypropyl]-4,5-dihydro-1H-1,2,4-triazol-1-yl}methyl)-1H-1,2,4-triazol-1-yl]-N-cyclopropylpyridine-2-carboxamide] here?
**A.** 16.5 nM

**Q.** What about the “ratio IC50 hV2/hV1a” value (human V1a receptor) of the same compound?
**A.** 66.7

**Q.** And the IC50 (human V2 receptor)?
**A.** 1100 nM

**Q.** With `O=C(NCC1CC1)c1ncccc1-n1cnc(Cn2nc(-c3ccc(Cl)cc3)n(C[C@H](O)C(F)(F)F)c2=O)n1` [Example 432, 3-[3-({3-(4-Chlorophenyl)-5-oxo-4-[(2S)-3,3,3-trifluoro-2-hydroxypropyl]-4,5-dihydro-1H-1,2,4-triazol-1-yl}methyl)-1H-1,2,4-triazol-1-yl]-N-(cyclopropylmethyl)pyridine-2-carboxamide] as the compound, how does the IC50 (human V1a receptor) read?
**A.** 44.5 nM

**Q.** And the “ratio IC50 hV2/hV1a” value (human V1a receptor)?
**A.** 21.2

**Q.** And the IC50 (human V2 receptor)?
**A.** 945 nM

**Q.** What does the source list for `NC(=O)[C@H]1CC(F)(F)CN1C(=O)c1ncccc1-n1cnc(Cn2nc(-c3ccc(Cl)cc3)n(C[C@H](O)C(F)(F)F)c2=O)n1` [Example 433, 1-({3-[3-({3-(4-Chlorophenyl)-5-oxo-4-[(2S)-3,3,3-trifluoro-2-hydroxypropyl]-4,5-dihydro-1H-1,2,4-triazol-1-yl}methyl)-1H-1,2,4-triazol-1-yl]pyridin-2-yl}carbonyl)-4,4-difluoro-D-prolinamide]?
**A.** IC50 (human V1a receptor): 71 nM; ratio IC50 hV2/hV1a (human V1a receptor): 31.0; IC50 (human V2 receptor): 2200 nM

**Q.** `NC(=O)[C@@H]1CC(F)(F)CN1C(=O)c1ncccc1-n1cnc(Cn2nc(-c3ccc(Cl)cc3)n(C[C@H](O)C(F)(F)F)c2=O)n1` [Example 434, 1-({3-[3-({3-(4-Chlorophenyl)-5-oxo-4-[(2S)-3,3,3-trifluoro-2-hydroxypropyl]-4,5-dihydro-1H-1,2,4-triazol-1-yl}methyl)-1H-1,2,4-triazol-1-yl]pyridin-2-yl}carbonyl)-4,4-difluoro-L-prolinamide] was tested. Which IC50 (human V1a receptor) did it give?
**A.** 82 nM

**Q.** What about the “ratio IC50 hV2/hV1a” value (human V1a receptor) of the same compound?
**A.** 32.9

**Q.** What about the IC50 (human V2 receptor) of the same compound?
**A.** 2700 nM

**Q.** `O=C(c1ncccc1-n1cnc(Cn2nc(-c3ccc(Cl)cc3)n(C[C@H](O)C(F)(F)F)c2=O)n1)N1CCC(F)(F)C1` [Example 437, 5-(4-Chlorophenyl)-2-[(1-{2-[(3,3-difluoropyrrolidin-1-yl)carbonyl]pyridin-3-yl}-1H-1,2,4-triazol-3-yl)methyl]-4-[(2S)-3,3,3-trifluoro-2-hydroxypropyl]-2,4-dihydro-3H-1,2,4-triazol-3-one] was tested. Which IC50 (human V1a receptor) did it give?
**A.** 40.5 nM

**Q.** What about the “ratio IC50 hV2/hV1a” value (human V1a receptor) of the same compound?
**A.** 91.4

**Q.** And the IC50 (human V2 receptor)?
**A.** 3700 nM

**Q.** What does the source list for `CC1(C)CN(C(=O)c2ncccc2-n2cnc(Cn3nc(-c4ccc(Cl)cc4)n(C[C@H](O)C(F)(F)F)c3=O)n2)CCO1` [Example 438, 5-(4-Chlorophenyl)-2-[(1-{2-[(2,2-dimethylmorpholin-4-yl)carbonyl]pyridin-3-yl}-1H-1,2,4-triazol-3-yl)methyl]-4-[(2S)-3,3,3-trifluoro-2-hydroxypropyl]-2,4-dihydro-3H-1,2,4-triazol-3-one]?
**A.** IC50 (human V1a receptor): 86 nM; ratio IC50 hV2/hV1a (human V1a receptor): 103.5; IC50 (human V2 receptor): 8900 nM

**Q.** What does the source list for `O=C(NC1CC(F)(F)C1)c1ncccc1-n1cnc(Cn2nc(-c3ccc(Cl)cc3)n(C[C@H](O)C(F)(F)F)c2=O)n1` [Example 439, 3-[3-({3-(4-Chlorophenyl)-5-oxo-4-[(2S)-3,3,3-trifluoro-2-hydroxypropyl]-4,5-dihydro-1H-1,2,4-triazol-1-yl}methy)-1H-1,2,4-triazol-1-yl]-N-(3,3-difluorocyclobutyl)pyridine-2-carboxamide]?
**A.** IC50 (human V1a receptor): 53.5 nM; ratio IC50 hV2/hV1a (human V1a receptor): 24.0; IC50 (human V2 receptor): 1280 nM

**Q.** How did the IC50 (human V1a receptor) turn out when `O=C1CN(C(=O)c2ncccc2-n2cnc(Cn3nc(-c4ccc(Cl)cc4)n(C[C@H](O)C(F)(F)F)c3=O)n2)CCN1` [Example 443, 4-({3-[3-({3-(4-Chlorophenyl)-5-oxo-4-[(2S)-3,3,3-trifluoro-2-hydroxypropyl]-4,5-dihydro-1H-1,2,4-triazol-1-yl}methyl)-1H-1,2,4-triazol-1-yl]pyridin-2-yl}carbonyl)piperazin-2-one] was run?
**A.** 220 nM

**Q.** What about the “ratio IC50 hV2/hV1a” value (human V1a receptor) of the same compound?
**A.** 102.3

**Q.** What about the IC50 (human V2 receptor) of the same compound?
**A.** 22500 nM

**Q.** How did the IC50 (human V1a receptor) turn out when `O=C(c1ncccc1-n1cnc(Cn2nc(-c3ccc(Cl)cc3)n(C[C@H](O)C(F)(F)F)c2=O)n1)N1CCCCC1` [Example 445, 5-(4-Chlorophenyl)-2-({1-[2-(piperidin-1-ylcarbonyl)pyridin-3-yl]-1H-1,2,4-triazol-3-yl}methyl)-4-[(2S)-3,3,3-trifluoro-2-hydroxypropyl]-2,4-dihydro-3H-1,2,4-triazol-3-one] was run?
**A.** 20 nM

**Q.** What about the “ratio IC50 hV2/hV1a” value (human V1a receptor) of the same compound?
**A.** 182.5

**Q.** What about the IC50 (human V2 receptor) of the same compound?
**A.** 3650 nM

**Q.** For `O=C(c1ncccc1-n1cnc(Cn2nc(-c3ccc(Cl)cc3)n(C[C@H](O)C(F)(F)F)c2=O)n1)N1CCOCC1` [Example 446, 5-(4-Chlorophenyl)-2-({1-[2-(morpholin-4-ylcarbonyl)pyridin-3-yl]-1H-1,2,4-triazol-3-yl}methyl)-4-[(2S)-3,3,3-trifluoro-2-hydroxypropyl]-2,4-dihydro-3H-1,2,4-triazol-3-one], which IC50 (human V1a receptor) is on record?
**A.** 47 nM

**Q.** And the “ratio IC50 hV2/hV1a” value (human V1a receptor)?
**A.** 457.4

**Q.** What about the IC50 (human V2 receptor) of the same compound?
**A.** 21500 nM

**Q.** What does the source list for `O=C(NC1(C(F)(F)F)CC1)c1ncccc1-n1cnc(Cn2nc(-c3ccc(Cl)cc3)n(C[C@H](O)C(F)(F)F)c2=O)n1` [Example 447, 3-[3-({3-(4-Chlorophenyl)-5-oxo-4-[(2S)-3,3,3-trifluoro-2-hydroxypropyl]-4,5-dihydro-1H-1,2,4-triazol-1-yl}methyl)-1H-1,2,4-triazol-1-yl]-N-[1-(trifluoromethyl)cyclopropyl]pyridine-2-carboxamide]?
**A.** IC50 (human V1a receptor): 29.5 nM; ratio IC50 hV2/hV1a (human V1a receptor): 27.6; IC50 (human V2 receptor): 815 nM
